{
  "source": "patent US20190256827A1",
  "about": "“EPIGENOME EDITING SYSTEMS AND METHODS” (STC.UNM, priority 2017, published 2019)",
  "key": {"[1]": {"system": "GRM2 locus in HEK293T cells", "assay": "ChIP-qPCR of FLAG-ABI-P300 and H3K27Ac at the GRM2 locus", "type": "cell-based, human", "experimental": "To determine if the new method can be used to modify H3K27Ac at other gene loci, sgRNAs were designed that target the promoter region of other genes with low expression levels in HEK293T cells, including GRM2, HBA and MYOD1 (Table 1).\nHuman embryonic kidney cell HEK293T (American Type Culture Collection, Manassas, Va.) was cultured in Dulbecco's modified Eagle's medium (DMEM) (Gibco) with 10% FBS (Atlanta Biologicals), 1× GlutaMax (Gibco, Thermo Fisher Scientific, Inc., Waltham, Mass.), and 1× penicillin/streptomycin (Pen/Strep; Gibco, Thermo Fisher Scientific, Inc., Waltham, Mass.). Cells (100,000/ml) were plated in 24-well or 10-cm cell culture plate the day before transfection. For each well of 24-well plate transfection, 500 ng of dCas9-PYL-HA, 420 ng of FLAG-ABI-P300, and a total amount of 200-ng mix of gRNAs, with a 50-ng per each gRNA, were mixed with 50×(v/w) Opti-MEM (Gibco, Thermo Fisher Scientific, Inc., Waltham, Mass.), then incubate with the same volume of 3 μg PEI-Opti-MEM solution for 20 minutes at room temperature. Then, 100 μL of PEI-combined plasmids were added to every single well of 24-well plate and cultured for 24 hours before experiments were performed. For a 10 cm plate, 1 mL of PEI-combined plasmids were needed. After six hours transfection, cells were washed and incubated for another 1-72 hours before experiments were performed.\nChIP protocol was optimized from the method in Molecular Cloning, Fourth edition (Cold Spring Harbor Laboratory Press, 2012). In brief, cells cultured in a 10-cm plate were fixed with 1 mL of cross-linking buffer (0.1 M NaCl, 1 mM EDTA, 0.5 mM EGTA, 50 mM HEPES and 11% formaldehyde), and shaken in room temperature for 15 minutes. Then 1.1 mL of 1.25 M glycine was added to the solution to stop crosslinking. After washing three times in ice cold PBS, cells were scraped and suspended in 10 mL of lysis buffer (50 mM HEPES, 140 mM NaCl, 1 mM EDTA, 10% Glycerol, 0.5% NP40, 0.25% Triton X-100), and rocked at 4° C. for 10 minutes. […]"}, "[2]": {"system": "luciferase reporter gene (fos-Luc) in CHO cells", "assay": "ABA-induced luciferase expression using integrated CRISPR/CIP (PYL-VP80 / dCas9-NLS-ABI, fos-Luc reporter, sgRNAs)", "type": "cell-based", "conditions": "CHO cells transfected for 24 hours; ABA 100 μM for 16 hours", "source_text": "In one exemplary embodiment, ABA-induced ABI-PYL dimerization recruited a transcriptional activator to a DNA sequence targeted by sgRNAs and dCas9, and turn on the expression of a reporter gene. Several DNA plasmids were constructed for this purpose, including: (i) a DNA plasmid (PYL-VP80-ires-dCas9-NLS-ABI) encoding the transcriptional activator VP80 fused to PYL (PYL-VP80) and dCas9 with a nuclear localization signal (NLS) fused to ABI (dCas9-NLS-ABI); (ii) a luciferase reporter gene (fos-Luc) that contains the fos minimal promoter to give minimal background expression; and (iii) several sgRNA expression constructs to target the upstream region (within 1.5 kb) of the luciferase gene. […] Also, specific combinations of multiple sgRNAs increased the induced expression level. In other applications, the fold induction can be improved by optimizing the targeting region of sgRNAs, the combination of different sgRNAs, and/or the framework of fusion proteins, which may lead to a better positioning of the recruited transcription machinery relative to the transcription start site. […] Since histone posttranslational modifications are generally present in an expanded region instead of a specific location (e.g., a transcription start site), the precise positioning may not be as critical for epigenome editing."}, "[3]": {"conditions": "GRM2 sgRNAs, ABA treatment for 48 hours"}},
  "data": [
    {"smiles": "CC1=CC(=O)CC(C)(C)[C@@]1(O)/C=C/C(C)=C\\C(=O)O", "note": "[ABA, abscisic acid]", "values": [
      {"measurement": "induction and reversibility of H3K27Ac enrichment at the GRM2 locus", "setting": "[1]; ABA 4-24 hours, then washing and 24 hours without ABA", "value": "rapidly induced upon ABA addition and reversed after ABA removal"},
      {"measurement": "enrichment of FLAG-ABI-P300 at the GRM2 locus", "setting": "[1]; [3]", "value": "causes the enrichment"},
      {"measurement": "enrichment of H3K27Ac at the GRM2 locus", "setting": "[1]; [3]", "value": "causes the enrichment"},
      {"measurement": "luciferase expression", "setting": "[2]", "value": "luciferase expression was induced"}
    ]}
  ]
}
